Measured values reported in article PMC10018501 (ACS Omega, 2023).
Where “and” joins values, the source holds several entries; their conditions need not be identical. Equal entries are not always repeated. Where two headings read alike, the source gives them in different places.

Legend:
hBACE-1 = hBACE-1 (Homo sapiens, UniProt P56817); test: biochemical
hAChE = hAChE (Homo sapiens, UniProt P22303); test: In vitro hAChE inhibition assay; type: biochemical; settings: for selectivity index hBChE/hAChE: IC50 of hBChE/IC50 of hAChE
hAChE, sequence (P22303 32-617 isoform P22303-2 limits assumed): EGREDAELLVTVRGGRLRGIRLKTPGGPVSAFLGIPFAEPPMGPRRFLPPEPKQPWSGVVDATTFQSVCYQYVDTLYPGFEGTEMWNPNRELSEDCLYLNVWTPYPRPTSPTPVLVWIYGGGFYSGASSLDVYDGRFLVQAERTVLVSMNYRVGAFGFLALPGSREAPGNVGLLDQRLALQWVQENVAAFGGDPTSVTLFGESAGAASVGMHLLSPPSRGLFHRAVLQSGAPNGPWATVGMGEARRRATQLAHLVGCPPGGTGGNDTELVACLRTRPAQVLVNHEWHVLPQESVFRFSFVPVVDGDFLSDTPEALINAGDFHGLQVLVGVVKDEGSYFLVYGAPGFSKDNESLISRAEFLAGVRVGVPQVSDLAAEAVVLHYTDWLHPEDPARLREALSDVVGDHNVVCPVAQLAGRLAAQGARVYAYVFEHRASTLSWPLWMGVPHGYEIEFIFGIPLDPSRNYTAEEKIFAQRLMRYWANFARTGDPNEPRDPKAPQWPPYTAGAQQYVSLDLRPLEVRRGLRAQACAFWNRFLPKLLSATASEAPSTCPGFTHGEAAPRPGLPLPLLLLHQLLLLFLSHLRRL

hBChE = hBChE (Equus caballus, UniProt P81908); test: In vitro hBChE inhibition assay; type: biochemical, human
hBChE, sequence (P81908 whole entry): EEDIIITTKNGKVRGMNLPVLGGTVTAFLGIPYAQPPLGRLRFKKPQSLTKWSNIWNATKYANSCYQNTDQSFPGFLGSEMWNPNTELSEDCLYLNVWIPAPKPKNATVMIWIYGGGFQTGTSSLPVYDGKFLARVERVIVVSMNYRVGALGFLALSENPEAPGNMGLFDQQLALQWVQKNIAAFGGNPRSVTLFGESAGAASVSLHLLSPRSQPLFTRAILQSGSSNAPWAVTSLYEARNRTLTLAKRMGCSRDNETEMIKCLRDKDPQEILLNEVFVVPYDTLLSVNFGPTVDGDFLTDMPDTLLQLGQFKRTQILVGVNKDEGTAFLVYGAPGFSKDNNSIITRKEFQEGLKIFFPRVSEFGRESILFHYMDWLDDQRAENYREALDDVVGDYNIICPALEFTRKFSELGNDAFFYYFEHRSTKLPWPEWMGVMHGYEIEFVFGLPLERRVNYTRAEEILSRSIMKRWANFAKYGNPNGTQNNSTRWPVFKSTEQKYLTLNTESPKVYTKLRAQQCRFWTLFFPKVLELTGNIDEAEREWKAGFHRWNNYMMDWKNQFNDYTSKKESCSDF

Aβ1–42 = Aβ1–42 (Homo sapiens, UniProt P05067); test: Self-induced Aβ aggregation inhibition thioflavin T assay; type: biochemical; settings: compound 5, 10 and 20 μM; Aβ 10 μM
Aβ1–42, sequence (P05067 672-713): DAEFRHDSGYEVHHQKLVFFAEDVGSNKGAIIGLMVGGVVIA

[1] = tested on: ICV Aβ1–42-induced rat model; test: Aβ-induced Morris water maze test; settings: SD-6 10 mg/kg, donepezil 5 mg/kg, orally 9 days; vs Aβ group
[2] = tested on: scopolamine-induced rat model; test: Scopolamine-induced Y-maze test; type: in vivo, Wistar rats; settings: SD-6 2.5, 5, 10 mg/kg p.o.; donepezil 5 mg/kg p.o.; 7 days; vs scopolamine group
[3] = target: PAS-AChE (hAChE-PAS region) (Homo sapiens, UniProt P22303); test: Propidium iodide displacement assay; type: binding
PAS-AChE (hAChE-PAS region), sequence (P22303 32-617 isoform P22303-2 limits assumed): as the sequence (P22303 32-617 isoform P22303-2 limits assumed) above

in vitro = settings: PAMPA, pH 7.4
[4] = n = 3, mean ± SEM
Aβ1–42 with hAChE = Aβ1–42 with hAChE (Homo sapiens, UniProt P22303); test: hAChE-induced Aβ aggregation inhibition thioflavin T assay; type: biochemical; settings: compound 5, 10 and 20 μM; Aβ 10 μM
Aβ1–42 with hAChE, sequence (P22303 32-588 isoform P22303-2): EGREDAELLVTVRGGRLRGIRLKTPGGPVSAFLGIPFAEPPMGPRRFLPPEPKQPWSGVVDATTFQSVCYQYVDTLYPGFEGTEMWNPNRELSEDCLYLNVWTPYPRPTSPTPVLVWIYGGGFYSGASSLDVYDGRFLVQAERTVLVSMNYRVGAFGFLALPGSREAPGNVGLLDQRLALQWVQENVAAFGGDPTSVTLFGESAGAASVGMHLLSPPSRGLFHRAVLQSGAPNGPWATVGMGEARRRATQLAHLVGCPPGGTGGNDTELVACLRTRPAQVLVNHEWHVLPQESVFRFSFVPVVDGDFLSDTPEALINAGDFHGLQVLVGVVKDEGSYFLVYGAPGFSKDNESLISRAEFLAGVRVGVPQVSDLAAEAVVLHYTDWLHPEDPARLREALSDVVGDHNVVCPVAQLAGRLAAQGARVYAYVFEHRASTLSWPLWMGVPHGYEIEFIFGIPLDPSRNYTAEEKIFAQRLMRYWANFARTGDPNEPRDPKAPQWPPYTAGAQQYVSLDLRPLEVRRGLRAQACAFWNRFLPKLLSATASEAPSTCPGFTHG

[5] = tested on: differentiated SH-SY5Y cells; test: Neurotoxicity estimation; type: cell-based; settings: 10, 20, 40 and 80 μM, 24 h
[6] = tested on: nondifferentiated SH-SY5Y cells; test: Neuroprotective estimation; type: cell-based; settings: Homo sapiens, 24 h, read-out: cell viability
[7] = hAChE inhibitory activity (good/moderate/poor), class in words

hBACE-1, sequence (P56817 46-501): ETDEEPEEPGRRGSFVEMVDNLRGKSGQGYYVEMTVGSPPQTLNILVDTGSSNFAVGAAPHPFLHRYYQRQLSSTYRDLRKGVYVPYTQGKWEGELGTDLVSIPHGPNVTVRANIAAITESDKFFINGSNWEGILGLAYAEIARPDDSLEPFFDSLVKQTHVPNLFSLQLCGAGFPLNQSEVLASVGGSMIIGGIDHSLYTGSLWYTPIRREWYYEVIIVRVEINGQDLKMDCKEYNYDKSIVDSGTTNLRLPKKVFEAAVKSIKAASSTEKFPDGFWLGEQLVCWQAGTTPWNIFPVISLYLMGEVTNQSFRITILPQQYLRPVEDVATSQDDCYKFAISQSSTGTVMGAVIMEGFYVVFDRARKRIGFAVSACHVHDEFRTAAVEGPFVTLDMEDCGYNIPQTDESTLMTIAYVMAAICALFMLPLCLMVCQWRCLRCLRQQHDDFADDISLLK

Compound | IC50 (hBACE-1) [µM] | IC50 (hBACE-1; IC50 ± SEM hBACE-1, n = 3) [µM] | IC50 (hAChE; IC50 ± SEM hAChE, n = 3) [µM] | IC50 (hBChE) [µM] | IC50 (hAChE; [7]) [µM] | other results
S=c1oc(-c2ccc(Cl)cc2Cl)nn1CN1CCN(Cc2ccccc2)CC1 [SD-9, 3-((4-Benzylpiperazin-1-yl)methyl)-5-(2,4-dichlorophenyl)-1,3,4-oxadiazole-2(3H)-thione] | 1 to 2.5 | 1.41 ± 0.031 | 2.11 ± 0.037 | > 10 |  | hAChE inhibitory activity (good/moderate/poor) (hAChE; class in words): moderate to poor
COc1ccc(-c2nn(CN3CCN(Cc4ccccc4)CC3)c(=S)o2)cc1 [SD-13, 3-((4-Benzylpiperazin-1-yl)methyl)-5-(4-methoxyphenyl)-1,3,4-oxadiazole-2(3H)-thione] | 1 to 2.5 | 1.358 ± 0.012 | 1.53 ± 0.028 | > 10 | 1 to 2 | 
O=[N+]([O-])c1ccccc1-c1nn(CN2CCN(Cc3ccccc3)CC2)c(=S)o1 [SD-5, 3-((4-Benzylpiperazin-1-yl)methyl)-5-(2-nitrophenyl)-1,3,4-oxadiazole-2(3H)-thione] | 1 to 2.5 | 1.17 ± 0.021 | 1.89 ± 0.031 | > 10 |  | hAChE inhibitory activity (good/moderate/poor) (hAChE; class in words): moderate to poor
COc1cc2c(cc1OC)C(=O)C(CC1CCN(Cc3ccccc3)CC1)C2 (stereo not shown) [donepezil, reference compound] |  |  |  |  |  | % Aβ aggregation inhibition, self-induced (Aβ1–42): 21–37%; escape latency time (ELT) [1]: maximum decline in ELT; time spent in the platform zone [1]: significantly (^bp < 0.001) higher; total number of entries to the platform zone [1]: significantly (^bp < 0.001) different from the Aβ-treated animal group; % spontaneous alterations [2]: significant (^b,c,dp < 0.001) increase
O=[N+]([O-])c1cc(-c2nn(CN3CCN(Cc4ccccc4)CC3)c(=S)o2)ccc1Cl [SD-14, 3-((4-Benzylpiperazin-1-yl)methyl)-5-(4-chloro-3-nitrophenyl)-1,3,4-oxadiazole-2(3H)-thione] |  | 0.806 ± 0.011 | 1.14 ± 0.018 | 1.94 ± 0.033 | 1 to 2 | PAS-AChE propidium iodide displacement (%) ([3]; [I] = 10 μM): 19.7% and 19.773 ± 1.216%; PAS-AChE propidium iodide displacement (%) ([3]; [I] = 50 μM): 36.8% and 36.841 ± 1.069%; Papp (in vitro): 4.858 ± 0.016 ×10⁻⁶ cm/s; selectivity index hBChE/hAChE (hAChE): 1.710; Pe(exp) PAMPA–BBB [4]: 4.848 10^–6 cm/s
FC(F)(F)Oc1ccc(-c2nn(CN3CCN(Cc4ccccc4)CC3)c(=S)o2)cc1 [SD-3, 3-((4-Benzylpiperazin-1-yl)methyl)-5-(4-(trifluoromethoxy)phenyl)-1,3,4-oxadiazole-2(3H)-thione] | 1 to 2.5 | 1.11 ± 0.016 | 1.335 ± 0.012 | > 10 | 1 to 2 | 
S=c1oc(-c2cccc(Cl)c2)nn1CN1CCN(Cc2ccccc2)CC1 [SD-7, 3-((4-Benzylpiperazin-1-yl)methyl)-5-(3-chlorophenyl)-1,3,4-oxadiazole-2(3H)-thione] |  | 0.885 ± 0.013 | 1.42 ± 0.022 | > 10 | < 1 | 
Oc1ccc(-c2nn(CN3CCN(Cc4ccccc4)CC3)c(=S)o2)c(O)c1 [SD-17, 3-((4-Benzylpiperazin-1-yl)methyl)-5-(2,4-dihydroxyphenyl)-1,3,4-oxadiazole-2(3H)-thione] | 1 to 2.5 | 2.15 ± 0.034 | 1.792 ± 0.015 | > 10 |  | hAChE inhibitory activity (good/moderate/poor) (hAChE; class in words): moderate to poor
N#Cc1cccc(-c2nn(CN3CCN(Cc4ccccc4)CC3)c(=S)o2)c1 [SD-4, 3-(4-((4-Benzylpiperazin-1-yl)methyl)-5-thioxo-4,5-dihydro-1,3,4-oxadiazol-2-yl)benzonitrile] |  | 0.651 ± 0.014 | 1.077 ± 0.009 | 1.65 ± 0.019 | < 1 | PAS-AChE propidium iodide displacement (%) ([3]; [I] = 10 μM): 24.6% and 24.661 ± 1.421%; PAS-AChE propidium iodide displacement (%) ([3]; [I] = 50 μM): 55.1% and 55.157 ± 1.247%; % Aβ aggregation inhibition, hAChE-induced (Aβ1–42 with hAChE): 38–79%; Papp (in vitro): 6.127 ± 0.019 ×10⁻⁶ cm/s; neurotoxicity (MTT, cell population and morphology) [5]: non-neurotoxic; % Aβ aggregation inhibition, self-induced (Aβ1–42): 20–61%; selectivity index hBChE/hAChE (hAChE): 1.534; viability at 5 µM [6]: 59.1%; viability at 10 µM [6]: 71.6%; viability at 20 µM [6]: 82.5%; Pe(exp) PAMPA–BBB [4]: 6.127 10^–6 cm/s
O=[N+]([O-])c1ccc(-c2nn(CN3CCN(Cc4ccccc4)CC3)c(=S)o2)cc1 [SD-2, 3-((4-Benzylpiperazin-1-yl)methyl)-5-(4-nitrophenyl)-1,3,4-oxadiazole-2(3H)-thione] |  | 0.811 ± 0.023 | 1.107 ± 0.008 | > 10 | 1 to 2 | 
COc1cccc(-c2nn(CN3CCN(Cc4ccccc4)CC3)c(=S)o2)c1 [SD-12, 3-((4-Benzylpiperazin-1-yl)methyl)-5-(3-methoxyphenyl)-1,3,4-oxadiazole-2(3H)-thione] | 1 to 2.5 | 1.21 ± 0.016 | 1.94 ± 0.024 | > 10 | 1 to 2 | 
S=c1oc(-c2ccccc2Br)nn1CN1CCN(Cc2ccccc2)CC1 [SD-16, 3-((4-Benzylpiperazin-1-yl)methyl)-5-(2-bromophenyl)-1,3,4-oxadiazole-2(3H)-thione] | 1 to 2.5 | 1.8 ± 0.029 | 2.41 ± 0.027 | > 10 |  | hAChE inhibitory activity (good/moderate/poor) (hAChE; class in words): moderate to poor
S=c1oc(-c2ccc(Cl)cc2)nn1CN1CCN(Cc2ccccc2)CC1 [SD-1, 3-((4-Benzylpiperazin-1-yl)methyl)-5-(4-chlorophenyl)-1,3,4-oxadiazole-2(3H)-thione] |  | 0.943 ± 0.018 | 1.26 ± 0.019 | > 10 | 1 to 2 | 
Oc1ccc(-c2nn(CN3CCN(Cc4ccccc4)CC3)c(=S)o2)cc1 [SD-10, 3-((4-Benzylpiperazin-1-yl)methyl)-5-(4-hydroxyphenyl)-1,3,4-oxadiazole-2(3H)-thione] |  | > 5 | 1.22 ± 0.013 | > 10 | 1 to 2 | 
O=[N+]([O-])c1ccc(-c2nn(CN3CCN(Cc4ccccc4)CC3)c(=S)o2)c([N+](=O)[O-])c1 [SD-15, 3-((4-Benzylpiperazin-1-yl)methyl)-5-(2,4-dinitrophenyl)-1,3,4-oxadiazole-2(3H)-thione] | 1 to 2.5 | 1.45 ± 0.022 | 1.42 ± 0.023 | > 10 |  | hAChE inhibitory activity (good/moderate/poor) (hAChE; class in words): moderate to poor
Nc1ccc(-c2nn(CN3CCN(Cc4ccccc4)CC3)c(=S)o2)cc1 [SD-11, 5-(4-Aminophenyl)-3-((4-benzylpiperazin-1-yl)methyl)-1,3,4-oxadiazole-2(3H)-thione] |  | > 5 | 1.22 ± 0.027 | > 10 | 1 to 2 | 
FC(F)(F)c1ccc(-c2nn(CN3CCN(Cc4ccccc4)CC3)c(=S)o2)cc1 [SD-8, 3-((4-Benzylpiperazin-1-yl)methyl)-5-(4-(trifluoromethyl)phenyl)-1,3,4-oxadiazole-2(3H)-thione] |  | 0.701 ± 0.019 | 1.32 ± 0.018 | 2.42 ± 0.041 | 1 to 2 | PAS-AChE propidium iodide displacement (%) ([3]; [I] = 10 μM): 21.446 ± 1.147%; PAS-AChE propidium iodide displacement (%) ([3]; [I] = 10 μM, listed as SD-08): 21.4%; PAS-AChE propidium iodide displacement (%) ([3]; [I] = 50 μM): 41.709 ± 1.271%; PAS-AChE propidium iodide displacement (%) ([3]; [I] = 50 μM, listed as SD-08): 41.7%; Papp (in vitro): 5.019 ± 0.033 ×10⁻⁶ cm/s; selectivity index hBChE/hAChE (hAChE): 1.835; Pe(exp) PAMPA–BBB [4]: 5.019 10^–6 cm/s
